Measured values reported in PMC10532587, “An Investigation of Structure–Activity Relationships and Cell Death Mechanisms of the Marine Alkaloids Discorhabdins in Merkel Cell Carcinoma Cells” (Marine Drugs, 2023).
Read-outs that look alike come from different tables or passages of the source.

Assays:
MKL-2 = assay: Cell survival by CellTiterGlo, VP-MCC line MKL-2; format: cell-based; conditions: for AUC (arbitrary units) MKL-2: area under the dose-response curve; for IC50: CellTiterGlo, normalized to DMSO
[1] = test system: control (HaCaT) and Merkel cell carcinoma cell lines; assay: Cell survival by CellTiterGlo, all seven cell lines; format: cell-based; conditions: for IC50: Homo sapiens, HaCaT; for activity on cell viability, in words: MCC and control cell lines
Procedure: (§1) Three methods were employed for assessment of MCC and control cell survival/viability after discorhabdin treatment, two metabolic assays and a cell permeability assay. For all three methods, cells were plated in 384-well plates at 2500 cells/well and treated with various concentrations of discorhabdins for various time periods. CellTiterGlo^TM (Promega, Madison, WI, USA) measures cellular ATP content and was used to estimate potency of discorhabdins in cell viability assays as previously described. Continuous monitoring of metabolic activity was accomplished using a cellular reducing potential luminescence assay, the RealTime-Glo^TM MT Cell Viability Assay (Promega, Madison, WI, USA) according to manufacturer’s instructions. Loss of cell plasma membrane integrity was assessed using a cell-impermeant molecule that becomes fluorescent upon binding DNA [82] in parallel with apoptosis detection per manufacturer’s instructions (RealTimeGlo^TM Annexin V Apoptosis and Necrosis Assay-Promega). Two additional assays of apoptotic cell death were also used. Caspase activation in response to treatment of MCC cells by discorhabdins or bortezomib (as a positive control) was measured using the CaspaseGlo® 3/7 Assay (Promega, Madison, WI, USA) according to the manufacturer’s instructions at multiple time points. Inhibition of apoptotic cell death was investigated using pre-treatment of cells with for 1 h with the pan-caspase inhibitor Z-VAD-FMK (Enzo Life Sciences, Farmingdale, NY, USA) followed by treatment with discorhabdins or bortezomib and estimation of cell viability as outlined above.
(§2) In order to compare responses among all of the discorhabdins and cell lines (98 combinations), dose–response curves were generated using identical discorhabdin dilution series. GraphPad Prism 8 (San Diego, CA, USA) software was utilized to graph dose–response data and to calculate IC50 values and area under the dose–response curves (AUC) along with 95% confidence interval estimates using four-parameter logistic nonlinear regression analysis. For further analysis and comparisons, AUC for each cell line/discorhabdin pair was visualized in a heatmap generated in R version 1.3.1073 (R Core Team (2013). R: A language and environment for statistical computing. R Foundation for Statistical Computing, Vienna, Austria, http://www.R-project.org/ (accessed on 12 January 2023).
Figure S39: Activity of discorhabdins against M CC cell lines.
The indicated discorh abd ins were ass essed for th eir ability to affect surviv al of control (H aCaT) and Merkel cell carcino ma cell lines (VN-MCC: MCC13, MCC26, UISO and VP -MCC: MKL-1, MKL-2, Wag a). Cells were plat ed at 2500 cells/well and compounds the next day. Cell survival was estimated by CellTiterGlo (normalized to untreated (DMSO) cells on the same plate). Structures w ere o btained from the supplier and/or the PubChem database or as described in the text. Number in bold in ( ) refers to structures in Figure 1 in the text. Curves were plotted and IC50 values and 95% confidence interval calculated by GraphPad software. […]

MCC13 = assay: Cell survival by CellTiterGlo, VN-MCC line MCC13; format: cell-based; conditions: for AUC (arbitrary units) MCC13: area under the dose-response curve; for IC50: CellTiterGlo, normalized to DMSO
Waga = assay: Cell survival by CellTiterGlo, VP-MCC line Waga; format: cell-based; conditions: for AUC (arbitrary units) WaGa: area under the dose-response curve; for IC50: CellTiterGlo, normalized to DMSO
MCC26 = assay: Cell survival by CellTiterGlo, VN-MCC line MCC26; format: cell-based; conditions: for AUC (arbitrary units) MCC26: area under the dose-response curve; for IC50: CellTiterGlo, normalized to DMSO
HaCaT = assay: Cell survival by CellTiterGlo, control cells; format: cell-based, human; conditions: for AUC (arbitrary units) HaCaT: area under the dose-response curve, control cells; for IC50: Homo sapiens, HaCaT
MKL-1 = assay: Cell survival by CellTiterGlo, VP-MCC line MKL-1; format: cell-based; conditions: VP-MCC; for AUC (arbitrary units) MKL-1: area under the dose-response curve; for IC50: MKL-1, CellTiterGlo, normalized to DMSO, read-out: IC50 (nM) MKL-1
UISO = assay: Cell survival by CellTiterGlo, VN-MCC line UISO; format: cell-based; conditions: for AUC (arbitrary units) UISO: area under the dose-response curve; for IC50: CellTiterGlo, normalized to DMSO
MCC cell lines = assay: Cell survival by CellTiterGlo, MCC cell lines together; format: cell-based; conditions: average over MCC cell lines
Procedure: as §1, §2

[2] = test system: VP-MCC cell lines (MKL-1, MKL-2, and Waga); assay: Selectivity VP-MCC versus control cells (average AUC); format: cell-based
Excerpt: as §2
(§3) Figure S41: Discorhabdi nselectivity
(§4) Discorhabdin selectivity for VP -MCC and VN- MCCcells was estimated by comparison of activity (average AUC) for each dis corhabdin against VP -MCC (panel A) or VN- MCC (panel B) cell lines compared to control cells . Discorhabdins were sort ed by selectivity from most to least selective. - fold dif fer ence = (av e VN -MCC or VP -MCC AUC/ control AUC). Error bars […]
(§5) (1 picture or pasted object on this page, not shown here)

[3] = test system: VN-MCC cell lines (MCC13, MCC26, and UISO); assay: Selectivity VN-MCC versus control cells (average AUC); format: cell-based
Excerpt: as §2, §3, §4, §5

[4] = control skin cell line, CellTiterGlo, normalized to DMSO, read-out: IC50 (nM) HaCaT
[5] = read-out: IC50 for control cells

Compound | AUC (arbitrary units) MKL-2 (MKL-2) [arbitrary units] | AUC (arbitrary units) MCC13 (MCC13) [arbitrary units] | AUC (arbitrary units) WaGa (Waga) [arbitrary units] | AUC (arbitrary units) MCC26 (MCC26) [arbitrary units] | AUC (arbitrary units) HaCaT (HaCaT) [arbitrary units] | AUC (arbitrary units) MKL-1 (MKL-1) [arbitrary units] | AUC (arbitrary units) UISO (UISO) [arbitrary units] | IC50 (MKL-2) [nM] | averaged potency (IC50) across all MCC cell lines tested (MCC cell lines) | activity on cell viability, in words [1] | IC50 (MCC13) [nM] | IC50 (Waga) [nM] | IC50 (MCC26) [nM] | IC50 (HaCaT; [4]) [nM] | IC50 (MKL-1) [nM] | IC50 (UISO) [nM] | increased activity against VP-MCC compared to the control [2] [fold] | other results
Cn1cnc(S[C@H]2[C@H]3C(=O)C=C4S[C@H]5C[C@]42C2=C(N5)C(=O)c4[nH]cc5c4C2=[N+]3CC5)c1C[C@H](N)C(=O)O (relative stereo) [Compound 14, (−)-(1R,2R,6R,8S,7′S*) discorhabdin H] | 946.5 | 950.6 | 930 | 947 | 992.5 | 901.7 | 952.3 | – | – | – | – | – | – | – | – | – | – | IC50 ([1]; CellTiterGlo, 10 µM highest concentration tested, read-out: IC50, all cell lines): > 10 µM; IC50 ([1]; essentially inactive compounds, read-out: average IC50 against all the cell lines): > 5 µM
O=C1CC2SC3CC2(C=C1Br)C1=C(N3)C(=O)c2[nH]cc3c2C1=NCC3 (single isomer, unassigned; (+)) [Compound 1] | 6.99 | 8.589 | 6.873 | 88.19 | 29.87 | 4.944 | 7.172 | 48 | sub-micromolar | most generally toxic compound tested | 64 | 57 | 197 | 273 | 29 | 54 | – | IC50 (HaCaT; [5]): ≤ 1000 nM
O=C1C=C2SC3CC2(C=C1Br)C1=C(N3)C(=O)c2[nH]cc3c2C1=NCC3 (single isomer, unassigned; (-)) [(-)B] | 9.451 | 41.45 | 5.814 | 80.18 | 114.3 | 1.929 | 33.26 | – | – | comparable activity against MCC and control cell lines | – | – | – | – | – | – | – | –
O=C1C=C[C@@]23C[C@@H](NC4=C2C2=NCCc5c[nH]c(c52)C4=O)SC3=C1 [Compound 4, (+)-(6S,8S) discorhabdin G*/I] | 108.8 | 124.8 | 105.3 | 140 | 267.7 | 54.17 | 121.7 | 879 | sub-micromolar | – | 940 | 859 | 1280 | 2450 | 481 | 921 | – | –
CSC1=CC(=O)C(Br)=C[C@]12C=CNC1=C2C2=NCCc3c[nH]c(c32)C1=O [Compound 8, (+)-(6S) N-13-demethyldiscorhabdin U] | – | 48.65 | 14.83 | 80.16 | 123.3 | 5.221 | 32.84 | – | sub-micromolar | one of the most active compounds tested | 299 | 86.9 | 749 | 1010 | 22.7 | 251 | > 10 | IC50 (HaCaT; [5]): ≤ 1000 nM
O=C1C=C(SSC2=CC(=O)C(Br)=C[C@]23C=CNC2=C3C3=NCCc4c[nH]c(c43)C2=O)[C@@]2(C=CNC3=C2C2=NCCc4c[nH]c(c42)C3=O)C=C1Br [Compound 10, (−)-(6S,6′S) discorhabdin W] | 55.04 | 184.2 | 40.16 | 290.1 | 538.3 | 18.4 | 162.4 | 387 | – | – | 1380 | 307 | 2560 | 4860 | 136 | 1240 | > 10 | –
Cc1[nH]c2c3c1CCN=C3C1=C(NCCC13C=C(Br)C(=O)C(Br)=C3)C2=O [Compound 18, 14-methyldiscorhabdin C] | – | 159.8 | 51.75 | 329.4 | 584.7 | 20.95 | 74.19 | – | – | – | 1450 | 430 | 3060 | 5380 | 175 | 670 | > 10 | increased activity against VN-MCC compared to control cells (fold difference) [3]: > 3 fold
O=C1C(Br)=CC2(C=C1Br)CCNC1=C2C2=NCCc3c(Br)[nH]c(c32)C1=O [Compound 19, 14-bromodiscorhabdin C] | – | 90.22 | 50.51 | 120.6 | 441.7 | 7.189 | 88.25 | – | sub-micromolar | – | 511 | 249 | 893 | 3740 | 37.8 | 412 | > 10 | increased activity against VN-MCC compared to control cells (fold difference) [3]: > 3 fold
O=C1C=C[C@]2(C=C1Br)CCNC1=C2C2=NCCc3c[nH]c(c32)C1=O [Compound 22, (+)-(6S)-discorhabdin E] | – | 106.9 | 36.75 | 226.2 | 328.3 | 14.16 | 53.3 | – | sub-micromolar | – | 888 | 332 | 2000 | 3010 | 125 | 459 | > 10 | –
